Measurements published in ChEMBL document CHEMBL1142814, “Synthesis and preliminary biological evaluation of new anti-tubulin agents containing different benzoheterocycles” (Bioorg Med Chem Lett, 2005).

Experiments:
[1] = target: Tubulin beta chain (Bos taurus); test: Concentration required to inhibit tubulin polymerization at 10 uM
[2] = target: Tubulin beta chain (Bos taurus) (UniProt Q6B856); test: Inhibition of 1 uM [3H]colchicine binding to tubulin at 5 uM
MOLT-4 = test: Concentration required to inhibit human T-lymphoblast Molt4/C8 cell line proliferation; type: functional, cell-based
FM3A = test: Concentration required to inhibit murine mammary carcinoma FM3A cell line proliferation; type: functional, cell-based; details: Mus musculus
CCRF-CEM = test: Concentration required to inhibit human T-lymphoblast CEM cell line proliferation; type: functional, cell-based
L1210 = test: Concentration required to inhibit murine leukemia L1210 cell line proliferation; type: functional, cell-based; details: Mus musculus
[3] = target: Tubulin beta chain (Bos taurus) (UniProt Q6B856); test: Inhibition of [3H]colchicine binding to 1 uM beta-tubulin at 2 uM

Chain of Tubulin beta chain (Bos taurus) (UniProt Q6B856) (Q6B856 whole entry): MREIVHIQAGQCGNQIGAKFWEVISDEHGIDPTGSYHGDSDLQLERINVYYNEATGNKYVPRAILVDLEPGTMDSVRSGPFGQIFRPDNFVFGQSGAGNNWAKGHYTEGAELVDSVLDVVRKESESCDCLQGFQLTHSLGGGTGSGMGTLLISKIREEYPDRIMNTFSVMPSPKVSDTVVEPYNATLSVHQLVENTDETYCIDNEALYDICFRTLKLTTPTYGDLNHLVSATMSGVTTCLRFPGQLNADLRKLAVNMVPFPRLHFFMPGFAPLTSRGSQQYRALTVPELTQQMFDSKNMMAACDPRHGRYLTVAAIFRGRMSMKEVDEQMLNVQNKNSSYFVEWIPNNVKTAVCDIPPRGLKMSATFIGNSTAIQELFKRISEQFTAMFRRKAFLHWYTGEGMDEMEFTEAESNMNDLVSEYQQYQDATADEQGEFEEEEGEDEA

Structure (SMILES) | IC50 [1] [µM] | inhibition [2] [%] | IC50 (MOLT-4) [nM] | IC50 (FM3A) [µM] | IC50 (CCRF-CEM) [nM] | IC50 (L1210) [nM] | inhibition [3] [%]
COc1cc(C(=O)c2c(N)sc3ccccc23)cc(OC)c1OC | 3.1 | 57 | 73 |  |  |  | 
COc1cc(C(=O)c2sc3ccccc3c2N)cc(OC)c1OC | 4.2 | 39 | 290 | 1.8 | 310 | 350 | 
COc1cc(C(=O)c2[nH]c3ccccc3c2N)cc(OC)c1OC |  |  | > 10000 | > 10 | > 10000 | > 10000 | 
COc1cc(C(=O)c2oc3ccccc3c2N)cc(OC)c1OC |  |  | > 10000 | > 10 | > 10000 | > 10000 | 
COc1cc(C(=O)c2c(N)sc3c2CCCC3)cc(OC)c1OC | > 40 | 3 | 1580 | 5.68 | 2150 | 2240 | 
COc1cc(C(=O)c2sc3cc(C)ccc3c2N)cc(OC)c1OC | 1.3 | 88 | 34 | 0.071 | 24 | 58 | 77
COc1ccc(C(=O)c2c(N)sc3ccccc23)cc1 |  |  | 9200 | > 10 | > 10000 | > 10000 | 
COc1ccc(C(=O)c2c(N)sc3ccccc23)cc1OC |  |  | 1700 | 4.7 | 1700 | 3700 | 
